{"source": "patent US11505533B2", "about": "“Metabolically stable N-acylaminooxadiazoles useful as antibacterial agents” (MICROBIOTIX, INC., priority 2017, dated 2022)", "key": {"[1]": {"target": "CYP450, 2D6 (Homo sapiens, UniProt P10635)", "sequence (P10635 whole entry)": "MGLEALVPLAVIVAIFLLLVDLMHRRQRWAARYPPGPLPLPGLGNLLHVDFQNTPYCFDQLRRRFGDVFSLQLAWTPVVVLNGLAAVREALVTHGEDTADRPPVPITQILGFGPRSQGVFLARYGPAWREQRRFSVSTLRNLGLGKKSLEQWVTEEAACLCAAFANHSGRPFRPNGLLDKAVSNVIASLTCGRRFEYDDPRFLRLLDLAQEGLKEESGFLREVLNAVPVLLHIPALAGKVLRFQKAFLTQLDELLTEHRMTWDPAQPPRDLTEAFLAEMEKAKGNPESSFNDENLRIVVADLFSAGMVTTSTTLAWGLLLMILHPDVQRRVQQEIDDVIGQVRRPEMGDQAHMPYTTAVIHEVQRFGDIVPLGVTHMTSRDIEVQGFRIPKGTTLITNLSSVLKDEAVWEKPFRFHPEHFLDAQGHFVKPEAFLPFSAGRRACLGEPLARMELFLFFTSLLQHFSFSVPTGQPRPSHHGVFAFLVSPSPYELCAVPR", "conditions": "10 µM"}, "[2]": {"target": "CYP2C9 (Homo sapiens, UniProt P11712)", "sequence (P11712 whole entry)": "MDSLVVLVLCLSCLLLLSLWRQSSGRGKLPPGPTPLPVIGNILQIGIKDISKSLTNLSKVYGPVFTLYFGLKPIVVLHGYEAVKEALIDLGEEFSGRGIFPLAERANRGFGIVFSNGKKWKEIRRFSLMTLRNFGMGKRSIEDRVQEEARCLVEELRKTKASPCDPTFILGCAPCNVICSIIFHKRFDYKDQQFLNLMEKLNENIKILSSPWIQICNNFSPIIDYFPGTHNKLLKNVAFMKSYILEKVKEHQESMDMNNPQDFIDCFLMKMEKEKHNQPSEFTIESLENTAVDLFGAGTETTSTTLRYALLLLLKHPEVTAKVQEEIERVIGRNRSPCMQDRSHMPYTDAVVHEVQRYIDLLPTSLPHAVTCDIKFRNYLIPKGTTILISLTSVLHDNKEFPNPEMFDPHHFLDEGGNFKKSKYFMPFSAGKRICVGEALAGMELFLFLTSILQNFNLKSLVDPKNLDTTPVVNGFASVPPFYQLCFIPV"}, "[3]": {"target": "CYP3A4 (Homo sapiens, UniProt P08684)", "sequence (P08684 whole entry)": "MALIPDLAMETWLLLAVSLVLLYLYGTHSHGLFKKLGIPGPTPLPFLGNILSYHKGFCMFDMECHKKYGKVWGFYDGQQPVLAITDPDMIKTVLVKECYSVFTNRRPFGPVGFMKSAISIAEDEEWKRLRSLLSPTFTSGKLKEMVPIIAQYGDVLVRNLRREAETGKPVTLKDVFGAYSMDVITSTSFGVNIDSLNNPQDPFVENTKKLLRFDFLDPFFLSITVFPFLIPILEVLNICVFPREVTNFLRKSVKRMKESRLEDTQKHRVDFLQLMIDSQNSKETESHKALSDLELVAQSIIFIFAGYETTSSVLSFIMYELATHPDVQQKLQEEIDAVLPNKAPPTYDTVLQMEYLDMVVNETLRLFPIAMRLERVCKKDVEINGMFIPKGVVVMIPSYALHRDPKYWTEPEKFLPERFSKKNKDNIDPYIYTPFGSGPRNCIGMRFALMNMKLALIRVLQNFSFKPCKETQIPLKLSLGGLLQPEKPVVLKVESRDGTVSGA"}, "[4]": {"target": "hERG potassium channel (Homo sapiens, UniProt Q12809)", "sequence (Q12809 whole entry)": "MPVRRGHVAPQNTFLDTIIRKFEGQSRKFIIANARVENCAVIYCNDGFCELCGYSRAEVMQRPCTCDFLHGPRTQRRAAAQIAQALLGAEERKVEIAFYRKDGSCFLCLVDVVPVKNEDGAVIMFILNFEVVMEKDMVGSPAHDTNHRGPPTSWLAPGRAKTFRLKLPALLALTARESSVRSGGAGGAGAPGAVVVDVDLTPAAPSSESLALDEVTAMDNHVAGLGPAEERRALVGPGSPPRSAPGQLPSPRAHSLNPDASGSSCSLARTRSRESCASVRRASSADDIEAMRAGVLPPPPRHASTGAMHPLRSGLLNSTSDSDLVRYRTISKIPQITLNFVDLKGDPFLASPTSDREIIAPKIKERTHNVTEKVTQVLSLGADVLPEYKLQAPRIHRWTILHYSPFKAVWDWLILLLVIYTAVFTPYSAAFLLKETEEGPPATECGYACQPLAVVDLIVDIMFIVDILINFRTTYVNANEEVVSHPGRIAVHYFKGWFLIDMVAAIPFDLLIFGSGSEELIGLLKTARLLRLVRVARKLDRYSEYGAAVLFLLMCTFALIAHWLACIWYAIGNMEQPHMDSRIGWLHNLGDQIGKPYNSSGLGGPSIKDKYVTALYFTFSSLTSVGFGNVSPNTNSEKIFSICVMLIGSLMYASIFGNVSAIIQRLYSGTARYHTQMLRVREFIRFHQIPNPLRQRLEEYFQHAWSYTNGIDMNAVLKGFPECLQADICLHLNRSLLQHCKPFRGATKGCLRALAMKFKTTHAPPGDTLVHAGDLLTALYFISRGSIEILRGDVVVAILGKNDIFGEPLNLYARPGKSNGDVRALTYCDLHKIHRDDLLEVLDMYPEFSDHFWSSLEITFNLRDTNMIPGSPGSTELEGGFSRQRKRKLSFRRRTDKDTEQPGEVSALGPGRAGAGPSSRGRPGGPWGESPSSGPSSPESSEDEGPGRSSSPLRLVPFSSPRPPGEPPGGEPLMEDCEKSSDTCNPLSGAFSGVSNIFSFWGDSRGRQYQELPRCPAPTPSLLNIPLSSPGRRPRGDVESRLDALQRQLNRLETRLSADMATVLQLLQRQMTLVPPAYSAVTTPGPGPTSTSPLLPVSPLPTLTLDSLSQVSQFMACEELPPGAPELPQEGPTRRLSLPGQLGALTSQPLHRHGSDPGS"}}, "data": [{"smiles": "O=C(Nc1nnc(-c2ccc(F)cc2)o1)N1CCc2ccccc2C1", "note": "[MBX-4132]", "values": [{"measurement": "% Inhibition", "setting": "[1]", "result": 10, "unit": "%"}]}, {"smiles": "O=C(Nc1nnc(-c2ccc(F)cc2)o1)c1ccc(Oc2ccccc2)nc1", "note": "[MBX-4237]", "values": [{"measurement": "inhibition at 10 µM", "setting": "[2]", "result": 5, "unit": "%"}, {"measurement": "inhibition at 10 µM", "setting": "[3]", "result": 6, "unit": "%"}, {"measurement": "inhibition at 10 µM", "setting": "[4]", "result": 8, "unit": "%"}]}]}
